Measurements reported in US20210332139A1, “MODULATION OF LEUKOCYTE ACTIVITY IN TREATMENT OF NEUROINFLAMMATORY DEGENERATIVE DISEASE” (Leuvas Therapeutics, priority 2013, published 2021).

Tests used:
neutrophils = assay: Rapid adhesion of neutrophils, soluble versus fibrillary Aβ1-42; assay type: cell-based; conditions: 30 μM, mean+/−SD
From the text: Although two-times less efficient than the soluble form, fibrillary Aβ triggered a significant increase of rapid neutrophil adhesion on both ICAM-1 and fibrinogen (Table 8; data are expressed as the mean+/−SD of bound cells in 0.2 mm^2 from three independent experiments made in duplicate).

human primary PMNs = assay: Static adhesion of human primary PMNs to ICAM-1 with signaling inhibitors; assay type: cell-based; conditions: for Adherent hPMNs to ICAM-1, n.t. (resting), Mean / Adherent hPMNs to ICAM-1, fMLP, Mean / Adherent hPMNs to ICAM-1, Aβ oligo, Mean: 30 min; for Adherent hPMNs to ICAM-1, fMLP, Mean: then 50 nM fMLP 1 min; for Adherent hPMNs to ICAM-1, Aβ oligo, Mean: then 10 μM Aβ 1 min; for Blockade of Aβ-induced adhesion of human neutrophils: result in words
Experimental: As a model system, human primary PMNs were isolated form healthy donors stimulated to very rapid adhesion to purified human ICAM-1, ligand for the β2 integrins LFA-1 and Maci. fMLP (the classical chemoattractant) was the positive control. […] PMNs were treated for 30 min. with different concentrations of inhibitors followed by stimulation for 1 min with 50 nM fMLP or with 10 μM Aβ. The number of adherent cells was quantified by computer-assisted evaluation. Statistical analysis was SD.

[1] = test system: Bend.3 endothelial cell line; assay: Adhesion molecule expression on Bend.3 endothelial cells (immunofluorescence); assay type: cell-based, mouse; set-up: key: −: VCAM-1 and selectins were not expressed (indicated by -, Table 2); constitutively expressed at low levels on endothelial cells (indicated by +/−, some vessels were positive for ICAM-1, Table 2); an increase of ICAM-1 expression (indicated by +, Table 2); conditions: Bend.3 cells, 25 U/ml TNFα, 18 h, positive control
Experimental: We performed in vitro experiments to study the effect of soluble Aβ1-42 oligomers on the endothelial cell line Bend.3, derived from mouse cerebral cortex purchased by ATCC& Cell Biology Collection (CRL-2299TM).
Briefly, Bend.3 were cultured at a concentration of 20×10^3/ml on a glass coverslip in 24-well plates containing DMEM supplemented with 10% Fetal Calf Serum (FCS). Cells were stimulated with 10 μM Aβ 1-42, for 18 h in DMEM with 1% FCS. […] positive control, cells were treated with 25 U/ml of TNFα for 18 h in DMEM with 1% FCS. Bend.3 were rinsed with PBS and fixed with 4% PFA for 10 minutes. Cells were washed with PBS incubated with blocking buffer for 1 h at RT° C. Primary antibodies were diluted in 1% Bovine Serum Albumin (BSA) PBS. Cells were incubated overnight at 4° C. with 50 μg/ml anti-VCAM (hybridoma MK2.7), 10 μg/ml anti-ICAM (hybridoma YN1.7), 0.5 μg/ml anti-CD31 (370700, Invitrogen), 5 μg/ml anti-E-selectin (hybridoma RME-1) and 1.5 μg/ml anti-P-selectin (CD62P, BD Pharmigen). The day after, cells were rinsed 2 times with PBS and then incubated with 7.5 μg/ml biotinylated secondary antibody (rabbit anti-rat, T0226, VectorLab) for 1 h at RT° C. Cells were rinsed 2 times with PBS and incubated with 25 μg/ml Avidin-TexasRed (A2006, Vector Lab) for 1 h at RT° C. in the dark. After rinsing in PBS, cells were incubated with 1 μg/ml Dapi (D9542, Sigma-Aldrich, St. Louis, Mo.), for 5 minutes in the dark. Finally, glass coverslip was transferred on glass slides and mounted with Dako medium (S3023, DAKO NORTH AMERICA, Carpinteria, Calif.). Glass slides were kept at 4° C. in the dark and acquired by LEICA fluorescence microscopy (DM6000B, LEICA, Germany).
We analyzed the expression of VCAM-1, ICAM-1, E- and P-selectin on Bend.3 after Aβ1-42 oligomers stimulation. TNF-α stimulation, which is well known to up-regulate the adhesion molecules expression, was used as positive control. We evaluated a dose-response effect of Aβ1-42 soluble oligomers on Bend.3 cells, ranging from 1 to 10 μM after 6 or 18 hours of treatment. After 18 h of treatment with 10 μM Aβ we observed a significant up-regulation of […] compared to non-stimulated control cells (CTRL) (Table 2). […] ICAM-1 was constitutively expressed at low levels on endothelial cells (indicated by +/−, some vessels were positive for ICAM-1, Table 2), but 18 h treatment with Aβ1-42 led to an increase of ICAM-1 expression (indicated by +, Table 2).

mouse neutrophils = assay: Isoluminol chemiluminescence ROS assay, mouse neutrophils; assay type: cell-based; conditions: mean+/−SD
Experimental: (§1) Isoluminol-based chemiluminescence assays were performed in HGCa in the presence of horseradish peroxidase (HRP) and isoluminol (both from Sigma-Aldrich) in a temperature-controlled Multilabel Count Victor X5 (Perkin Elmer). Assays were run in dark 96 well plates precoated with 250 μg/ml human fibrinogen in HGCa containing (final concentration): 100 μM isoluminol and 8 U/ml HRP. After addition of 1×10^5 human neutrophils or 7.5×10^5 mouse neutrophils, plates were left at 37° C. for 5-10 min and the reaction started by addition of the stimulus. Light emission was recorded every minute.
(§2) We used the chemotactic peptide fMLP as positive control. […] Data are mean+/−SD for three independent experiments.
Data are mean+/−SD counts per second.

human neutrophils [2] = assay: Rapid human neutrophil adhesion to ICAM-1, inhibition by bocMLF and PTx; assay type: cell-based
Experimental: It is known that one of the receptors for Aβ is the receptor for fMLP, formylpeptide chemotactic receptor (FPR). To evaluate the contribution of this GPCR receptor on Aβ-dependent neutrophil adhesion, we inhibited its function using boc-MLF, a formyl-peptide chemotactic receptor antagonist. Human neutrophils were incubated for 2 minutes with buffer (control) or with oligomeric Aβ. 0.1 μM fMLP was used as a positive control. Values are expressed as the mean counts of bound cells in 0.2 mm^2 from three independent experiments in duplicate. Error bars represent SD. […] To exclude the possibility that rapid adhesion triggering was a consequence of a generic plasma membrane alteration due to the lipophilic nature of Aβ, we evaluated rapid adhesion in lymphocytes, which are known to lack fMLP receptors.

human neutrophils [3] = assay: Isoluminol chemiluminescence ROS assay, human neutrophils; assay type: cell-based; conditions: result in words
Experimental: One of the mechanisms of neuronal damage by beta-amyloid in Alzheimer's disease is the generation of reactive oxygen species (ROS). We determined whether Aβ1-42 oligomers induce ROS production in neutrophils by using a chemiluminescence assay.
as §1, §2

| Compound | Adherent hPMNs to ICAM-1, n.t. (resting), Mean (human primary PMNs; inhibitor 100 μM) | Adherent hPMNs to ICAM-1, fMLP, Mean (human primary PMNs; inhibitor 100 μM) | Adherent hPMNs to ICAM-1, Aβ oligo, Mean (human primary PMNs; inhibitor 100 μM) | Blockade of Aβ-induced adhesion of human neutrophils (human primary PMNs) | further results |
| --- | --- | --- | --- | --- | --- |
| Fib Abeta: fibrillary form of Aβ1-42 peptide |  |  |  |  | Rapid adhesion to Fibrinogen (neutrophils): 171 ± 21.8 bound cells in 0.2 mm^2; Rapid adhesion to ICAM-1 (neutrophils): 457.3 ± 45.54 bound cells in 0.2 mm^2 |
| NC(=O)c1cccc(-c2cc(Nc3ccc(OC(F)(F)F)cc3)ncn2)c1 [GNF-2] | 25.2 | 144.2 | 115.5 | can block |  |
| Cc1cnc(Nc2ccc(OCCN3CCCC3)cc2)nc1Nc1cccc(S(=O)(=O)NC(C)(C)C)c1 [TG101348] | 20.1 | 147.2 | 134.8 | can block |  |
| Cc1ccc(NC(=O)c2ccc(CN3CCN(C)CC3)cc2)cc1Nc1nccc(-c2cccnc2)n1 [Imatinib, imatinib] | 23.5 | 124.9 | 109.3 | can block |  |
| TNF-a |  |  |  |  | CD31 expression (endothelial cell marker) [1]: +; E-sel expression [1]: +; ICAM-1 expression [1]: +; P-sel expression [1]: +; VCAM-1 expression [1]: +; ROS generation (chemiluminescence) (mouse neutrophils; 1 min): 38 ± 20 counts per second; ROS generation (chemiluminescence) (mouse neutrophils; 2 min): 62 ± 21 counts per second; ROS generation (chemiluminescence) (mouse neutrophils; 3 min): 102 ± 28 counts per second; ROS generation (chemiluminescence) (mouse neutrophils; 4 min): 136 ± 26 counts per second; ROS generation (chemiluminescence) (mouse neutrophils; 5 min): 187 ± 14 counts per second |
| COc1cc(Nc2c(C#N)cnc3cc(OCCCN4CCN(C)CC4)c(OC)cc23)c(Cl)cc1Cl [Bosutinib, bosutinib] | 19.3 | 98.2 | 95.1 |  |  |
| COc1cc2ncnc(Nc3ccc(O)c(Br)c3)c2cc1OC [WHI-P154] | 23.5 | 207.8 | 218.8 | can block |  |
| N#CC[C@H](C1CCCC1)n1cc(-c2ncnc3[nH]ccc23)cn1 [Ruxolitinib, ruxolitinib] | 17.0 | 243.8 | 244.5 |  |  |
| Cc1nc(Nc2ncc(C(=O)Nc3c(C)cccc3Cl)s2)cc(N2CCN(CCO)CC2)n1 [Dasatinib, dasatinib] |  |  |  |  | Adherent hPMNs to ICAM-1, n.t. (resting), Mean (human primary PMNs; inhibitor 20 μM): 24.9; Adherent hPMNs to ICAM-1, fMLP, Mean (human primary PMNs; inhibitor 20 μM): 230.8; Adherent hPMNs to ICAM-1, Aβ oligo, Mean (human primary PMNs; inhibitor 20 μM): 227.5 |
| C[C@@H]1CCN(C(=O)CC#N)C[C@@H]1N(C)c1ncnc2[nH]ccc12 [CP-690550] |  |  |  | can block | Adherent hPMNs to ICAM-1, n.t. (resting), Mean (human primary PMNs; inhibitor 200 μM): 22.1; Adherent hPMNs to ICAM-1, fMLP, Mean (human primary PMNs; inhibitor 200 μM): 209.6; Adherent hPMNs to ICAM-1, Aβ oligo, Mean (human primary PMNs; inhibitor 200 μM): 172.4 |
| Oc1cc(O)cc(/C=C/c2ccc(O)c(O)c2)c1 [Piceatannol, piceatannol] |  |  |  |  | Adherent hPMNs to ICAM-1, n.t. (resting), Mean (human primary PMNs; inhibitor 50 μM): 21.0; Adherent hPMNs to ICAM-1, fMLP, Mean (human primary PMNs; inhibitor 50 μM): 218.7; Adherent hPMNs to ICAM-1, Aβ oligo, Mean (human primary PMNs; inhibitor 50 μM): 276.1 |
| bocMLF | 20.1 | 55.0 | 81.8 | inhibits | Neutrophil adhesion to ICAM-1 after inhibitor pre-treatment (human neutrophils [2]; buffer (control), no stimulus): 17.3 ± 6.6 bound cells in 0.2 mm^2; Neutrophil adhesion to ICAM-1 after inhibitor pre-treatment (human neutrophils [2]; stimulated 2 minutes with oligomeric Aβ): 74.8 ± 25.5 bound cells in 0.2 mm^2; Neutrophil adhesion to ICAM-1 after inhibitor pre-treatment (human neutrophils [2]; stimulated with 0.1 μM fMLP): 69 ± 26.5 bound cells in 0.2 mm^2 |
| c1ccc2c(c1)[I+]c1ccccc1-2 [DPI] |  |  |  |  | Effect on fMLP and Aβ1-42 ROS responses (human neutrophils [3]): suppressed |
| N#C/C(=C/c1ccc(O)c(O)c1)C(=O)NCc1ccccc1 [AG490] |  |  |  | can block | Adherent hPMNs to ICAM-1, n.t. (resting), Mean (human primary PMNs; inhibitor 200 μM): 23.2; Adherent hPMNs to ICAM-1, fMLP, Mean (human primary PMNs; inhibitor 200 μM): 274.5; Adherent hPMNs to ICAM-1, Aβ oligo, Mean (human primary PMNs; inhibitor 200 μM): 258.6 |
| C=CC(=O)N1CCC[C@@H](n2nc(-c3ccc(Oc4ccccc4)cc3)c3c(N)ncnc32)C1 [Ibrutinib, ibrutinib] | 21.9 | 80.0 | 78.0 |  |  |
